Legend:
[1] = Paz et al., Marine Drugs 2008; cited from earlier work
β-amyloid = assay: Intracellular β-amyloid expression, immunocytometry with 6E10 antibody; assay type: cell-based, mouse; settings: 3xTg-AD neocortical cultures, 1 nM yessotoxin between days 3 and 7 of culture; **p<0.005 vs transgenic cultures, n=3
Source text: (§1) In order to carry out the experiments of the present invention, either an in vitro cortical neuronal model with simultaneous overexpression of Tau and β-amyloid, obtained from a model of Alzheimer's disease in triple-transgenic (3xTg-AD or 3xTg) mice, obtainable via the detailed procedure in the international patent application WO 2003/053136 and provided by the title holders of this application, or an in vitro cortical neuronal model obtained from non-transgenic (no Tg) mice was used.
(§2) The effect of yessotoxin on overexpression of β-amyloid and Tau hyperphosphorylation was determined by immunocytometric and Western blot techniques. Primary neuronal cultures were treated with 1 nM yessotoxin between days 3 and 7 of culture. The cells were then processed following the usual protocols for immunocytometry and Western blot. For immunocytometric and Western blot studies, protein expression was evaluated using 6E10 anti-β-amyloid primary antibodies at a dilution of 1:500, AT8 anti-Tau (Tau phosphorylated on Ser202, dilution 1:1000) and AT100 anti-Tau (Tau phosphorylated on Thr212 and Ser214, dilution 1:1000). […] Total protein concentration was determined by Bradford's method using bovine albumin as standard. […] The membranes were incubated with the primary antibodies, washed, and then incubated with a secondary antibody linked to HRP; the immunoreactivity was detected by chemiluminescence. […]

[2] = tested on: Tau phosphorylated on Ser202; assay: Phosphorylated Tau (Ser202), Western blot with AT8 antibody; assay type: cell-based, mouse; settings: 3xTg-AD cortical cultures, 1 nM yessotoxin between days 3 and 7 of culture; *p<0.05, n=3
Source text: as §1, §2

[3] = tested on: Tau phosphorylated on Thr212 and Ser214; assay: Phosphorylated Tau (Thr212 and Ser214), Western blot with AT100 antibody; assay type: cell-based, mouse; settings: 3xTg-AD cortical cultures, 1 nM yessotoxin between days 3 and 7 of culture; n=3
Source text: as §1, §2

[4] = tested on: primary cortical cultures; assay: Cellular viability, Alamar Blue fluorescence assay; assay type: cell-based, mouse; settings: primary cortical neurones, up to concentrations of 1 nM, Alamar Blue 10%
Source text: as §1
The primary cortical cultures in the present invention were obtained from 3xTg-AD mouse embryos of 15-17 days of gestation and the wild cultures were obtained from non-3xTg control mouse embryos of the same strain. The effect of the compounds used in this invention on cellular viability was estimated by a fluorescence assay using the Alamar Blue viability indicator. To carry out the assay, primary cortical cultures seeded on 96-well plates were used. The neuronal cells were incubated with yessotoxin, which was added to the culture medium at different concentrations, and the effect on in vitro neuronal viability at different treatment times was determined. The maximum concentration of yessotoxin evaluated was 1 nM and the concentration of Alamar blue was 10%.
The reaction volume used was 200 μl. Fluorescence was measured at wavelengths of 530 nm (excitation) and 590 nm (emission).

yessotoxin
oral toxicity [1]: does not exhibit oral toxicity | overexpression of β-amyloid (6E10 immunoreactivity) (β-amyloid): significant reduction of overexpression of β-amyloid | Tau phosphorylation (AT8, Ser202) [2]: significant reduction of Tau phosphorylation | reduction of Tau phosphorylation (AT100, Thr212 and Ser214) [3]: 12% | effect on in vitro cell viability [4]: did not affect in vitro cell viability
